The results in this text go back to patent US4338122A, “Biocidal 2-aryl-1,3-cyclopentanedione compounds and alkali metal and ammonium salts thereof” (Union Carbide Corporation, priority 1980, dated 1982).

The subject of one test is Bean. In words: Post-emergent herbicidal test, bean. The test is classed as in vivo. More on the design: key: 1: no perceptible injury; 2: intermediate degrees of injury based upon the number and extent to which leaves were injured; 3: intermediate degrees of injury based upon the number and extent to which leaves were injured; 4: intermediate degrees of injury based upon the number and extent to which leaves were injured; 5: the plant was dead. To be noted: 2500 parts per million, after ten days. How it is done: (§1) Suspensions of the test compounds were prepared by dissolving one gram of compound in 50 milliliters of acetone in which had been dissolved 0.1 gram (10 percent of the weight of compound) of an alkylphenoxyethoxyethanol surfactant, as an emulsifying or dispersing agent. The resulting solution was mixed into 160 milliliters of water to give roughly 200 milliliters of a suspension containing the compound in finely divided form. The thus prepared stock suspension contained 0.5 percent by weight of compound. The test concentrations employed in the tests described herein below were obtained by diluting the stock suspension with water. The test procedures were as follows:
(§2) Experiments were also conducted to determine the phytotoxicity of representative compositions with respect to healthy fresh plants. Solutions of the compounds were prepared as described above to provide a concentration of 2500 parts per million of the test compound. The test plants were sprayed in accordance with the procedure described above for the Mite Foliage Spray Test so as to deliver approximately 100 milliliters of test solutions to the leaves of each plant tested. The sprayed plants and controls were set aside for approximately one hour to allow the solutions to dry and were then placed in the greenhouse. After ten days the plants were visually inspected to determine the extent of foliage injury. A rating of 1 indicates no perceptible injury; 5 indicates the plant was dead and ratings of 2, 3 and 4 indicate intermediate degrees of injury based upon the number and extent to which leaves were injured.
(§3) Tests were conducted in accordance with the procedures given at pages 32 to 37 supra. The results are expressed in the same manner as used in Table I, except with respect to miticidal activity. For mite adult and mite egg comparison purposes, results are given in parts per million (ppm) required for a 50 percent kill of mites or eggs, respectively.

The next test has as its system Corn. As to the kind of experiment: Post-emergent herbicidal test, corn. The test is classed as in vivo. To be noted: 2500 parts per million, after ten days. More on the design: key: 1: no perceptible injury; 2: intermediate degrees of injury based upon the number and extent to which leaves were injured; 3: intermediate degrees of injury based upon the number and extent to which leaves were injured; 4: intermediate degrees of injury based upon the number and extent to which leaves were injured; 5: the plant was dead. How it is done: as §1, §2, §3

The next test deals with Tomato. In words: Post-emergent herbicidal test, tomato. The test is classed as in vivo. More on the design: key: 1: no perceptible injury; 2: intermediate degrees of injury based upon the number and extent to which leaves were injured; 3: intermediate degrees of injury based upon the number and extent to which leaves were injured; 4: intermediate degrees of injury based upon the number and extent to which leaves were injured; 5: the plant was dead. Conditions: 2500 parts per million, after ten days. How it is done: as §1, §2, §3

Another test deals with Cotton. As to the kind of experiment: Post-emergent herbicidal test, cotton. The test is classed as in vivo. More on the design: key: 1: no perceptible injury; 2: intermediate degrees of injury based upon the number and extent to which leaves were injured; 3: intermediate degrees of injury based upon the number and extent to which leaves were injured; 4: intermediate degrees of injury based upon the number and extent to which leaves were injured; 5: the plant was dead. Conditions: 2500 parts per million, after ten days. How it is done:
as §1, §2, §3

The next test has as its system Perennial rye grass. As to the kind of experiment: Preliminary herbicide seed germination test (pre-emergent), rye grass. The test is classed as in vivo, Solium perenne. On the set-up: key: 5: no seedling emerged; 4: few seedlings emerged and/or very severe stunting; 3: moderate reduction in stand and/or moderate stunting; 2: very slight reduction in stand and/or slight stunting; 1: no injury; seedlings appear no different with respect to stand or growth than untreated controls. Conditions: ten to twelve days after application. Here is the method: as §1
(§4) The following seeds were used in this test:
Perennial rye grass--Solium perenne
(§5) Two soil-seed mixtures were prepared as follows:
(§6) Each of the above mixtures was rolled separately in 5 gallon containers for approximately one-half hour on ball mill to insure uniform mixing of seeds and soil. For each compound four 3-inch pots were filled with soil to within 11/2 inches of top of pots. To two of these pots were added 70 cc. of Mixture I. To the remaining 2 pots were added 70 cc. of Mixture II. The seed-soil mixture was tamped firmly, and the pots were removed to the green-house and watered lightly. About 2 hours after planting, 25 milliliters of the test formulation were added to one pot containing Mixture I and one pot containing Mixture II. An equal volume of a water solution containing acetone and an emulsifier in the same concentration as the herbicidal mixture but without the candidate herbicide was also added to each of the soil-seed mixtures. These pots are used as check or control units. The test compounds were formulated by diluting the stock suspension with water to obtain the desired concentration of the compound in parts per million of the final formulation. Each compound was tested at the same concentration. […] Ratings were made according to the following designations:
as §3

The test system of a further test is Crabgrass. As to the kind of experiment: Preliminary herbicide seed germination test (pre-emergent), crabgrass. The test is classed as in vivo, Digitaria sanguinalis. On the set-up: key: 5: no seedling emerged; 4: few seedlings emerged and/or very severe stunting; 3: moderate reduction in stand and/or moderate stunting; 2: very slight reduction in stand and/or slight stunting; 1: no injury; seedlings appear no different with respect to stand or growth than untreated controls. To be noted: ten to twelve days after application. Here is the method:
as §1, §4
Crabgrass--Digitaria sanguinalis
as §5, §6, §3

Test [1] has as its system Red root pigweed (Amaranthus). In words: Preliminary herbicide seed germination test (pre-emergent), Amaranthus. The test is classed as in vivo, Amaranthus retroflexus. On the set-up: key: 5: no seedling emerged; 4: few seedlings emerged and/or very severe stunting; 3: moderate reduction in stand and/or moderate stunting; 2: very slight reduction in stand and/or slight stunting; 1: no injury; seedlings appear no different with respect to stand or growth than untreated controls. Conditions: ten to twelve days after application. How it is done:
as §1, §4
Red root pigweed--Amaranthus retroflexus
as §5, §6, §3

Another test concerns Mustard. As to the kind of experiment: Preliminary herbicide seed germination test (pre-emergent), mustard. The test is classed as in vivo, Brassica pincea var. foliosa (Florida broadleaf). On the set-up: key: 5: no seedling emerged; 4: few seedlings emerged and/or very severe stunting; 3: moderate reduction in stand and/or moderate stunting; 2: very slight reduction in stand and/or slight stunting; 1: no injury; seedlings appear no different with respect to stand or growth than untreated controls. To be noted: ten to twelve days after application. How it is done:
as §1, §4
Mustard--Brassica pincea var. foliosa (Florida broadleaf)
as §5
as §6, with “designations: […]” for “designations:”

Regarding `O=C1CCC(=O)C1c1ccccc1Cl` [Cl H H H H], the “Post-Emergent Herbicidal, Bean (injury rating)” value (shortened to “Post-Emergent Herbicidal, Bean”) in the test on Bean (Table I) was found to be 3. The “Post-Emergent Herbicidal, Corn (injury rating)” value (“Post-Emergent Herbicidal, Corn” below) in the test on Corn (Table I) came out at 2. The “Post-Emergent Herbicidal, Tomato (injury rating)” value (from here on “Post-Emergent Herbicidal, Tomato”) in the test with Tomato (Table I) is recorded as 1. In addition, the “Post-Emergent Herbicidal, Cotton (injury rating)” value (“Post-Emergent Herbicidal, Cotton” for short) in the test on Cotton (Table I) is 2. For the same compound, the “Pre-emergent Herbicidal, Rye (injury rating)” value (“Pre-emergent Herbicidal, Rye” for short) with Perennial rye grass (Table I) was 5. The “Pre-emergent Herbicidal, Crabgrass (injury rating)” value (“Pre-emergent Herbicidal, Crabgrass” for short) in the test on Crabgrass (Table I) turned out to be 3. Besides, in test [1] (Table I), the “Pre-emergent Herbicidal, Amaranthus (injury rating)” value (shortened to “Pre-emergent Herbicidal, Amaranthus”) is reported as 1. In the test on Mustard (Table I), the “Pre-emergent Herbicidal, Mustard (injury rating)” value (“Pre-emergent Herbicidal, Mustard” for short) came out at 3.

On to `O=C1CCC(=O)C1c1ccc(Cl)cc1Cl` [Cl Cl H H H, 2-(2',4'-Dichlorophenyl)-1,3-cyclopentanedione], for which the “Post-Emergent Herbicidal, Bean” value in the test with Bean (Table I) stood at 1. Besides, the “Post-Emergent Herbicidal, Corn” value with Corn (Table I) stood at 1. Also, the “Post-Emergent Herbicidal, Tomato” value in the test with Tomato (Table I) was 1. Also, the “Post-Emergent Herbicidal, Cotton” value in the test with Cotton (Table I) was found to be 2. Moreover, in the test on Perennial rye grass (Table I), the “Pre-emergent Herbicidal, Rye” value amounted to 1. The “Pre-emergent Herbicidal, Crabgrass” value in the test with Crabgrass (Table I) is given as 1. Further, in test [1] (Table I), the “Pre-emergent Herbicidal, Amaranthus” value worked out at 1. In addition, the “Pre-emergent Herbicidal, Mustard” value with Mustard (Table I) is 1.

As for `Cc1ccc(C2C(=O)C3CCCCC3C2=O)c(C)c1` (centres unmarked) [CH3 CH3 H (CH2)4, 2-(2',4'-dimethylphenyl)-4,5,6,7,8,9-hexahydro-1,3-indandione], the “Post-Emergent Herbicidal, Bean” value in the test with Bean (Table I) and with Bean (Table II) was 1 throughout. The “Post-Emergent Herbicidal, Corn” value in the test with Corn (Table I) and in the test with Corn (Table II) was 2 throughout. The “Post-Emergent Herbicidal, Tomato” value in the test with Tomato (Table I) and with Tomato (Table II) was 2 throughout. The “Post-Emergent Herbicidal, Cotton” value with Cotton (Table I) and in the test with Cotton (Table II) was 2 each time. Besides, the “Pre-emergent Herbicidal, Rye” value in the test on Perennial rye grass (Table I) and in the test on Perennial rye grass (Table II) was 5 each time. In addition, the “Pre-emergent Herbicidal, Crabgrass” value with Crabgrass (Table I) and with Crabgrass (Table II) was 5 throughout. The “Pre-emergent Herbicidal, Amaranthus” value in test [1] (Table I) and in test [1] (Table II) was 5 in each case. For the same compound, the “Pre-emergent Herbicidal, Mustard” value in the test with Mustard (Table I) and with Mustard (Table II) was 5 each time.

As to `Cc1ccccc1C1C(=O)CCC1=O` [CH3 H H H H, 2-(2'-methylphenyl)-1,3-cyclopentanedione], the “Post-Emergent Herbicidal, Bean” value with Bean (Table I) and in the test with Bean (Table II) was 3 throughout. For the same compound, the “Post-Emergent Herbicidal, Corn” value with Corn (Table I) and in the test with Corn (Table II) was 3 throughout. In addition, the “Post-Emergent Herbicidal, Tomato” value in the test with Tomato (Table I) and in the test with Tomato (Table II) was 2 in each case. In addition, the “Post-Emergent Herbicidal, Cotton” value in the test with Cotton (Table I) and with Cotton (Table II) was 3 throughout. Besides, the “Pre-emergent Herbicidal, Rye” value with Perennial rye grass (Table I) and in the test on Perennial rye grass (Table II) was 5 in each case. Further, the “Pre-emergent Herbicidal, Crabgrass” value in the test with Crabgrass (Table I) and in the test with Crabgrass (Table II) was 2 throughout. In addition, the “Pre-emergent Herbicidal, Amaranthus” value in test [1] (Table I) and in test [1] (Table II) was 1 each time. For the same compound, the “Pre-emergent Herbicidal, Mustard” value in the test on Mustard (Table I) and in the test on Mustard (Table II) was 1 throughout.

Regarding `Cc1ccc(C2C(=O)c3ccccc3C2=O)c(C)c1` [Reference II Page 146, Compound 9, reference compound], the “Post-Emergent Herbicidal, Bean” value in the test with Bean (Table II) came to 1. Besides, the “Post-Emergent Herbicidal, Corn” value with Corn (Table II) was determined as 1. Moreover, the “Post-Emergent Herbicidal, Tomato” value in the test with Tomato (Table II) is on record as 1. Also, the “Post-Emergent Herbicidal, Cotton” value in the test with Cotton (Table II) stood at 1. Also, the “Pre-emergent Herbicidal, Rye” value in the test with Perennial rye grass (Table II) came out at 4. For the same compound, the “Pre-emergent Herbicidal, Crabgrass” value in the test on Crabgrass (Table II) came to 3. In test [1] (Table II), the “Pre-emergent Herbicidal, Amaranthus” value came out at 3. Moreover, in the test with Mustard (Table II), the “Pre-emergent Herbicidal, Mustard” value was 2.

As for `Cc1ccccc1C1C(=O)C2CCCCC2C1=O` (centres unmarked) [CH3 H H (CH2)4, 2-(2'-Methylphenyl)-4,5,6,7,8,9-hexahydro-1,3 indandione], the “Post-Emergent Herbicidal, Bean” value in the test on Bean (Table I) and in the test on Bean (Table II) was 2 in each case. In addition, the “Post-Emergent Herbicidal, Corn” value in the test on Corn (Table I) and in the test on Corn (Table II) was 2 in each case. Further, the “Post-Emergent Herbicidal, Tomato” value in the test with Tomato (Table I) and with Tomato (Table II) was 1 throughout. For the same compound, the “Post-Emergent Herbicidal, Cotton” value in the test on Cotton (Table I) and in the test with Cotton (Table II) was 3 each time. Besides, the “Pre-emergent Herbicidal, Rye” value in the test with Perennial rye grass (Table I) and in the test on Perennial rye grass (Table II) was 5 each time. Further, the “Pre-emergent Herbicidal, Crabgrass” value in the test with Crabgrass (Table I) and in the test on Crabgrass (Table II) was 3 each time. For the same compound, the “Pre-emergent Herbicidal, Amaranthus” value in test [1] (Table I) and in test [1] (Table II) was 3 each time. The “Pre-emergent Herbicidal, Mustard” value in the test with Mustard (Table I) and in the test with Mustard (Table II) was 2 each time.

Regarding `Cc1ccc(C)c(C2C(=O)CC(C)C2=O)c1` (centres unmarked) [CH3 H CH3 CH3 H, 2-(2',5'-Dimethylphenyl)-4-methyl-1,3-cyclopentanedione], the “Post-Emergent Herbicidal, Bean” value in the test on Bean (Table I) turned out to be 2. The “Post-Emergent Herbicidal, Corn” value in the test with Corn (Table I) was found to be 3. In addition, in the test with Tomato (Table I), the “Post-Emergent Herbicidal, Tomato” value came out at 2. Further, the “Post-Emergent Herbicidal, Cotton” value in the test with Cotton (Table I) is on record as 2. Also, the “Pre-emergent Herbicidal, Rye” value with Perennial rye grass (Table I) is recorded as 4. The “Pre-emergent Herbicidal, Crabgrass” value in the test with Crabgrass (Table I) worked out at 2. For the same compound, the “Pre-emergent Herbicidal, Amaranthus” value in test [1] (Table I) is 3. In addition, in the test on Mustard (Table I), the “Pre-emergent Herbicidal, Mustard” value came to 2.
